Calls of active or inactive are those of the source. The calls are words filed in the database; no cut-off is given here.
Legend:
Format in all cases: functional, cell-based
[1] = Antiinflammatory activity against mouse BV2 cells assessed as inhibition of LPS-induced NO production preincubated for 1 hr followed by LPS addition measured after 24 hrs by Griess method; details: BV-2
[2] = system: RAW264.7; assay: Antiinflammatory activity against mouse RAW264.7 cells assessed as inhibition of LPS-induced PGE2 production at 5 to 10 uM preincubated for 1 hr followed by LPS addition measured after 24 hrs by ELISA
[3] = system: RAW264.7; assay: Antiinflammatory activity against mouse RAW264.7 cells assessed as inhibition of LPS-induced NO production preincubated for 1 hr followed by LPS addition measured after 24 hrs by Griess method
[4] = system: RAW264.7; assay: Antiinflammatory activity against mouse RAW264.7 cells assessed as effect on PGE2 level at 5 to 10 uM after 24 hrs by ELISA relative to control
[5] = system: BV-2; assay: Antiinflammatory activity against mouse BV2 cells assessed as effect on PGE2 level at 5 to 10 uM after 24 hrs by ELISA relative to control
[6] = system: BV-2; assay: Antiinflammatory activity against mouse BV2 cells assessed as inhibition of LPS-induced PGE2 production at 5 to 10 uM preincubated for 1 hr followed by LPS addition measured after 24 hrs by ELISA

Row | SMILES | IC50 [1] [µM] | inhibition [2] | IC50 [3] [µM] | Activity [4] | Activity [5] | inhibition [6] | inhibition [3]
1 | C=C/C=C/C/C(I)=C\CC#CC/C=C\C/C(I)=C\CCCC(=O)OC | 23.3 | Active | 3.9 | inactive | inactive |  | 
2 | C=CCCC/C=C\CC#CC/C=C\C/C(I)=C\CCCC(=O)OC | 3.1 |  | 53.6 | inactive | inactive | Active | 
3 | C/C=C/CC/C(I)=C\CC#CC/C=C\C/C(I)=C\CCCC(=O)OC | 18 | Active | 7 | inactive | inactive |  | 
4 | CCCCC/C=C\CC#CC/C=C\C/C(I)=C\CCCC(=O)OC | 1.8 |  |  | inactive | inactive | Active | inactive
